Data taken from US9328083B2, “2-aminated methylene or 2-esterified methylene tanshinone derivatives, and preparation method and application thereof” (HANGZHOU BENSHENG PHARMACEUTICAL CO., LTD., priority 2011, dated 2016).
In brackets after ≈: the same amount, converted by molar mass.

Experiments:
[1] = test system: RPMI8226 (multiple myeloma); experiment: MTT growth inhibition of multiple myeloma cells, 72 h; type: cell-based, human; details: Homo sapiens, RPMI 8226, 72 h; for IC50: read-out: IC50; for IC90: read-out: IC90
Method: Myeloma cell lines: RPMI8226 (multiple myeloma), purchased from Fuxiang Bio-tech Co. Ltd., Shanghai, China.
(§1) The standard sample of tanshinone I (TA) and the 2-aminated methylene or 2-esterified methylene tanshinone I derivatives of the present invention are sufficiently dissolved with dimethylsulfoxide to produce a stock solution of 10 mg/mL, which is refrigerated at 4° C. and stored in dark, and is diluted with a cell culture medium to the desired concentration prior to experimentation.
(§2) Obtaining 6000 well-growing myeloma cells as above and inoculating them into wells of a 96-well cell culture plate. The culture medium is the 1640 cell culture medium containing 10% fetal bovine serum. After adding the 2-aminated methylene or 2-esterified methylene tanshinone I derivatives of different concentrations and mixing uniformly, placing the plate in a carbon dioxide cell incubator (5% CO2) at 37° C. and incubated for 72 hours. Then the viable cell concentration is determined by MTT method.

[2] = test system: SK-OV-3 (ovarian cancer cell); experiment: MTT growth inhibition of human solid tumor cells, 72 h; type: cell-based; details: Homo sapiens, SK-OV-3, 72 h; for IC50: read-out: IC50; for IC90: read-out: IC90
Method: (§3) Hep-2 (laryngeal carcinoma), A549 (human lung cancer), CaES-17 (esophageal cancer cell), PC-3 (prostate cancer), CNE (nasopharyngeal carcinoma cell), and SK-OV-3 (ovarian cancer cell), all of which are purchased from China Center For Type Culture Collection; RKO (human colon adenocarcinoma cell), MGC 803 (human gastric cancer cell), MG63 (osteosarcoma) and U87 MG (malignant glioma cell), all of which are purchased from Fuxiang Bio-tech Co. Ltd., Shanghai, China; PANC-1 (pancreatic cancer), Hep G2 (human liver cancer cell), Becap37 (human breast cancer cell) and Hela (human cervical cancer cell), all of which are donated by Cancer Research Institute of Zhejiang University, China.
as §1
(§4) Obtaining 4000 well-growing human solid tumor cells and inoculating them into wells of a 96-well cell culture plate. The culture medium is DMEM High Glucose cell culture medium containing 10% fetal bovine serum. The plate is placed in a carbon dioxide cell incubator (5% CO2) at 37° C. and incubated for 24 hours. After adding the 2-aminated methylene or 2-esterified methylene tanshinone I derivatives of different concentrations and mixing uniformly, the plate is placed in a carbon dioxide cell incubator (5% CO2) at 37° C. and incubated for 72 hours. Then the viable cell concentration is determined by the MTT method.

[3] = test system: U87 MG (malignant glioma cell); experiment: as above; type: cell-based; details: Homo sapiens, U-87 MG, U87-MG, 72 h; for IC50: read-out: IC50; for IC90: read-out: IC90
Method: as §3, §1, §4

[4] = test system: PANC-1 (pancreatic cancer); experiment: as above; type: cell-based; details: Homo sapiens, PANC-1, 72 h; for IC50: read-out: IC50; for IC90: read-out: IC90
Method: as §3, §1, §4

A549 (human lung cancer) = experiment: as above; type: cell-based; details: Homo sapiens, A549, 72 h; for IC50: read-out: IC50; for IC90: read-out: IC90
Method: as §3, §1, §4

[5] = test system: Hela (human cervical cancer cell); experiment: as above; type: cell-based; details: Homo sapiens, HeLa, 72 h; for IC50: read-out: IC50; for IC90: read-out: IC90
Method: as §3, §1, §4

[6] = test system: Hep-2 (laryngeal carcinoma); experiment: as above; type: cell-based; details: Homo sapiens, HEp-2, 72 h; for IC50: read-out: IC50; for IC90: read-out: IC90
Method: as §3, §1, §4

PC-3 (prostate cancer) = experiment: as above; type: cell-based; details: Homo sapiens, PC-3, 72 h; for IC50: read-out: IC50; for IC90: read-out: IC90
Method: as §3, §1, §4

MG63 (osteosarcoma) = experiment: as above; type: cell-based; details: Homo sapiens, MG-63, 72 h; for IC50: read-out: IC50; for IC90: read-out: IC90
Method: as §3, §1, §4

[7] = test system: RKO (human colon adenocarcinoma cell); experiment: as above; type: cell-based; details: Homo sapiens; for IC50: read-out: IC50; for IC90: read-out: IC90
Method: as §3, §1, §4

[8] = test system: CNE (nasopharyngeal carcinoma cell); experiment: as above; type: cell-based; details: Homo sapiens; for IC50: read-out: IC50; for IC90: read-out: IC90
Method: as §3, §1, §4

[9] = test system: MGC 803 (human gastric cancer cell); experiment: as above; type: cell-based; details: Homo sapiens, MGC-803, 72 h; for IC50: read-out: IC50; for IC90: read-out: IC90
Method: as §3, §1, §4

[10] = test system: CaES-17 (esophageal cancer cell); experiment: as above; type: cell-based; details: Homo sapiens, CaEs17, CaEs-17, 72 h; for IC50: read-out: IC50; for IC90: read-out: IC90
Method: as §3, §1, §4

[11] = test system: Hep G2 (human liver cancer cell); experiment: as above; type: cell-based; details: Homo sapiens, HepG2, Hep G2, 72 h; for IC50: read-out: IC50; for IC90: read-out: IC90
Method: as §3, §1, §4

[12] = test system: Becap37 (human breast cancer cell); experiment: as above; type: cell-based; details: Homo sapiens, Becap-37, 72 h; for IC50: read-out: IC50; for IC90: read-out: IC90
Method: as §3, §1, §4

[13] = test system: Kasumi-1 (acute myeloid leukemia M2 type, AML-M2); experiment: MTT growth inhibition of leukemia cells, 72 h; type: cell-based, human; details: Homo sapiens, Kasumi-1, 72 h; for IC50: read-out: IC50; for IC90: read-out: IC90
Source text: (§5) Leukemia cell lines: leukemia cell lines: K562/adr (drug-resistant, chronic myeloid leukemia, CML), NB4 (acute promyelocytic leukemia, AML), Kasumi-1 (acute myeloid leukemia M2 type, AML-M2), and Jurkat (acute lymphoblastic leukemia, ALL), all of which are donated by Cancer Research Institute of Zhejiang University, China; and H9 (acute lymphoblastic leukemia, ALL), which is purchased from China Center for Type Culture Collection (CCTCC).
as §1
as §2, with “leukemia” for “myeloma”, “cells” for “cells as above”, “RPMI-1640” for “1640”, “adding on the second day” for “adding”

[14] = test system: H9 (acute lymphoblastic leukemia, ALL); experiment: MTT growth inhibition of leukemia cells, 72 h; type: cell-based, human; details: Homo sapiens, H9, 72 h; for IC50: read-out: IC50; for IC90: read-out: IC90
Source text: as §5, §1
as §2, with “leukemia” for “myeloma”, “cells” for “cells as above”, “RPMI-1640” for “1640”, “adding on the second day” for “adding”

[15] = test system: Jurkat (acute lymphoblastic leukemia, ALL); experiment: MTT growth inhibition of leukemia cells, 72 h; type: cell-based, human; details: Homo sapiens, 72 h; for IC50: read-out: IC50; for IC90: read-out: IC90
Source text: as §5, §1
as §2, with “leukemia” for “myeloma”, “cells” for “cells as above”, “RPMI-1640” for “1640”, “adding on the second day” for “adding”

[16] = test system: NB4 (acute promyelocytic leukemia, AML); experiment: MTT growth inhibition of leukemia cells, 72 h; type: cell-based, human; details: Homo sapiens, NB4, 72 h; for IC50: read-out: IC50; for IC90: read-out: IC90
Source text: as §5, §1
as §2, with “leukemia” for “myeloma”, “cells” for “cells as above”, “RPMI-1640” for “1640”, “adding on the second day” for “adding”

[17] = test system: K562/adr (drug-resistant, chronic myeloid leukemia, CML); experiment: MTT growth inhibition of leukemia cells, 72 h; type: cell-based, human; details: Homo sapiens, K562/Adr; for IC50: read-out: IC50; for IC90: read-out: IC90
Source text: as §5, §1
as §2, with “leukemia” for “myeloma”, “cells” for “cells as above”, “RPMI-1640” for “1640”, “adding on the second day” for “adding”

| IC50 [1] | IC90 [1] | IC50 [2] | IC90 [2] | IC50 [3] | IC90 [3] | IC50 [4] | IC90 [4] | IC50 (A549 (human lung cancer)) | IC90 (A549 (human lung cancer)) | IC50 [5] | IC90 [5] | IC50 [6] | IC90 [6] | IC50 (PC-3 (prostate cancer)) | IC90 (PC-3 (prostate cancer)) | IC50 (MG63 (osteosarcoma)) | IC90 (MG63 (osteosarcoma)) | IC50 [7] | IC90 [7] | SMILES | other results |
| --- | --- | --- | --- | --- | --- | --- | --- | --- | --- | --- | --- | --- | --- | --- | --- | --- | --- | --- | --- | --- | --- |
| 0.45 µg/mL (≈ 0.946 µM) | 1.78 µg/mL (≈ 3.74 µM) | 3.96 µg/mL (≈ 8.33 µM) | 7.99 µg/mL (≈ 16.8 µM) | 0.86 µg/mL (≈ 1.81 µM) | 1.83 µg/mL (≈ 3.85 µM) | 0.87 µg/mL (≈ 1.83 µM) | 11.1 µg/mL (≈ 23.3 µM) | 1.79 µg/mL (≈ 3.76 µM) | 6.05 µg/mL (≈ 12.7 µM) | 1.15 µg/mL (≈ 2.42 µM) | 3.59 µg/mL (≈ 7.55 µM) | 1.28 µg/mL (≈ 2.69 µM) | 3.67 µg/mL (≈ 7.72 µM) | 1.71 µg/mL (≈ 3.6 µM) | 8.19 µg/mL (≈ 17.2 µM) | 1.02 µg/mL (≈ 2.15 µM) | 3.26 µg/mL (≈ 6.86 µM) | 0.28 µg/mL (≈ 0.589 µM) | 2.88 µg/mL (≈ 6.06 µM) | COC(=O)/C=C/C(=O)OCCN(C)Cc1oc2c(c1C)C(=O)C(=O)c1c-2ccc2c(C)cccc12 [BS-TA-74] | IC50 [8]: 1.39 µg/mL (≈ 2.92 µM); IC90 [8]: 2.91 µg/mL (≈ 6.12 µM); IC50 [9]: 0.8 µg/mL (≈ 1.68 µM); IC90 [9]: 3.87 µg/mL (≈ 8.14 µM); IC50 [10]: 1.09 µg/mL (≈ 2.29 µM); IC90 [10]: 1.86 µg/mL (≈ 3.91 µM); IC50 [11]: 1.35 µg/mL (≈ 2.84 µM); IC90 [11]: 5.26 µg/mL (≈ 11.1 µM); IC50 [12]: 0.85 µg/mL (≈ 1.79 µM); IC90 [12]: 1.81 µg/mL (≈ 3.81 µM); IC50 [13]: 0.26 µg/mL (≈ 0.547 µM); IC90 [13]: 1.57 µg/mL (≈ 3.3 µM); IC50 [14]: 0.25 µg/mL (≈ 0.526 µM); IC90 [14]: 1.49 µg/mL (≈ 3.13 µM); IC50 [15]: 0.96 µg/mL (≈ 2.02 µM); IC90 [15]: 1.86 µg/mL (≈ 3.91 µM); IC50 [16]: 0.19 µg/mL (≈ 0.4 µM); IC90 [16]: 0.49 µg/mL (≈ 1.03 µM); IC50 [17]: 0.8 µg/mL (≈ 1.68 µM); IC90 [17]: 1.8 µg/mL (≈ 3.79 µM) |
| 3.39 µg/mL (≈ 7.6 µM) | 7.85 µg/mL (≈ 17.6 µM) | > 16 µg/mL | > 16 µg/mL | 5.71 µg/mL (≈ 12.8 µM) | 14.2 µg/mL (≈ 31.7 µM) | 3.31 µg/mL (≈ 7.42 µM) | 12 µg/mL (≈ 27 µM) | 6.23 µg/mL (≈ 14 µM) | > 16 µg/mL | 4.5 µg/mL (≈ 10.1 µM) | 14.9 µg/mL (≈ 33.3 µM) | 3.96 µg/mL (≈ 8.88 µM) | 19.1 µg/mL (≈ 42.9 µM) | 5.32 µg/mL (≈ 11.9 µM) | 12.6 µg/mL (≈ 28.2 µM) | 2.87 µg/mL (≈ 6.44 µM) | 14 µg/mL (≈ 31.4 µM) | 1.46 µg/mL (≈ 3.27 µM) | 13.4 µg/mL (≈ 30.1 µM) | Cc1c(COC(=O)c2ccnc(Cl)c2)oc2c1C(=O)C(=O)c1c-2ccc2c(C)cccc12 [BS-TA-A01] | IC50 [8]: 4.1 µg/mL (≈ 9.2 µM); IC90 [8]: 45 µg/mL (≈ 101 µM); IC50 [9]: 5.38 µg/mL (≈ 12.1 µM); IC90 [9]: 16 µg/mL (≈ 35.9 µM); IC50 [10]: 6.36 µg/mL (≈ 14.3 µM); IC90 [10]: 12.7 µg/mL (≈ 28.4 µM); IC50 [11]: 4.82 µg/mL (≈ 10.8 µM); IC90 [11]: 16 µg/mL (≈ 35.9 µM); IC50 [12]: 4.74 µg/mL (≈ 10.6 µM); IC90 [12]: 10.8 µg/mL (≈ 24.1 µM); IC50 [13]: 1.75 µg/mL (≈ 3.93 µM); IC90 [13]: 3.91 µg/mL (≈ 8.77 µM); IC50 [14]: 3.09 µg/mL (≈ 6.93 µM); IC90 [14]: 10.4 µg/mL (≈ 23.2 µM); IC50 [15]: 3 µg/mL (≈ 6.73 µM); IC90 [15]: 9.27 µg/mL (≈ 20.8 µM); IC50 [16]: 0.99 µg/mL (≈ 2.22 µM); IC90 [16]: 3.97 µg/mL (≈ 8.9 µM); IC50 [17]: 2.33 µg/mL (≈ 5.23 µM); IC90 [17]: 6.24 µg/mL (≈ 14 µM) |
